This passage reports EC50 and IC50 results from patent US7579488B2 (Eli Lilly and Company, priority 2003, dated 2009).

The structures appear in SMILES notation. Values joined by “and” are separate entries in the source; they are usually repeats but may differ in a detail not shown here. Equal entries are not always repeated.

Holding throughout (format): cell-based
One experiment has as its target T1, RXR-VDR heterodimer (Homo sapiens, UniProt P11473).
T1 construct: Add the Gal4-RXR-DEF and VP16-VDR-LBD; expressed in transfected cells; host or cells: SaOS-2 cells
T1 sequence (P11473 127-423 limits assumed): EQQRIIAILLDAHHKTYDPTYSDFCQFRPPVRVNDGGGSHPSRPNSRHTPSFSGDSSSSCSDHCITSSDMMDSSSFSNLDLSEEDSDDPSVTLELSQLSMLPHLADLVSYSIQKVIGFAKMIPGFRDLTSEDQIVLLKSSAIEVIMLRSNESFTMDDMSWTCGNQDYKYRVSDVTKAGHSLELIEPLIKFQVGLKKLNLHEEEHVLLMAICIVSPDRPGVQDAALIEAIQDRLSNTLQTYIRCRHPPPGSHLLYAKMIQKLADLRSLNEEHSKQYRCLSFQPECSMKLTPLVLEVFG
T1 sequence (P19793 201-462 partner limits assumed): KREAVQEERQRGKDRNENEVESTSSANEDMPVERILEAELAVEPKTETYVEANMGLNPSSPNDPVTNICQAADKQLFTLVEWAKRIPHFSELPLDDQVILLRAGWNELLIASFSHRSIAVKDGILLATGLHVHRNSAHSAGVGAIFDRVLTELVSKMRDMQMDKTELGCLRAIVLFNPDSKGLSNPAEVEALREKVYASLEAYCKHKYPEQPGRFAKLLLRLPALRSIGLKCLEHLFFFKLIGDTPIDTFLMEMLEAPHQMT
In words: RXR-VDR heterodimerization assay (SaOS-2 cells). The conditions noted are these: Gal4-RXR-DEF/VP16-VDR-LBD luciferase reporter, several values in a cell separated by /. The protocol:
1. The RXR-VDR Heterodimer Assay:
This assay provides the VDR activity of a test compound.
(1) Materials and Method for RXR-VDR Heterodimerization Assay:
Luciferase Assay Reagent: • Use Steady-Glo Luciferase Reagent from Promega (Cat #E2550) Consists of: a. E2533 Assay Substrate, lyopholized product and b. E2543 Assay Buffer. • Thaw at room temperature • Store Cell Harvesting Aspirate media from culture flask, rinse cells with HBSS and aspirate. Add trypsin and incubate. When cells appear detached, resuspend cells in growth media. Transfer into a new flask with fresh growth media for passaging the cells. Plate well plates and two extra plates A. Cell Count Mix the cell suspension using pipette Use Hematocytometer to count the cells Load cell suspension onto the hemocytometer chamber Count cells. […] In sterile flask add cell suspension to plating media. Mix. Add cells/well. Place the cells in the incubator. Cells should be about 75% confluent prior to transfection. DAY 2: Transfection Step 1: DNA and Media Add plain DMEM media to tubes for mixing the DNA Add the Reporter gene pFR-LUC Add the Gal4-RXR-DEF and VP16-VDR-LBD Step 2: FuGENE and Media Prepare plain DMEM media in a ubes for mixing FuGENE Add FuGENE 6 Transfection Reagent Incubate Step 3: FuGENE, DNA and Media Complex Add FuGENE Media complex from step 2 to DNA Media complex from step 1 Incubate Step 4: FuGENE, DNA and Media Complex to-well plate Add FuGENE-DNA-Media complex from step 3 to each plate Incubate. […] Day 4: Luciferase Assay Read the plates after drug treatment Remove part of media from all the wells and leave remainder Add Steady-Glo Luciferase Reagent mixture/wells Incubate Count each well using a Luminescence counter, Top Count NXT by Packard
Set a delay between plates to reduce the background.
On the technique in general: A reporter such as luciferase makes a cellular process visible.

A further experiment deals with rat osteocalcin promoter. Briefly: OCN (osteocalcin) promoter assay. The conditions noted are these: RG-15 (ROS 17/2.8) cells. Here is the method:
3. The OCN (Osteocalcin) Promoter Assay
The OCN Promoter Assay is an indicator and marker for osteoporosis. […] Preferred assay results are less than 50 nM.
(3) Materials and Method for The OCN Promoter Assay:
The activation of osteocalcin by VDR ligands was evaluated in a rat osteoblast-like cell line RG-15 (ROS 17/2.8) stably expressing rat osteocalcin promoter fused with luciferase reporter gene. […] Confluent RG-15 cells maintained in DMEM/F-12 medium (3:1) containing 5% FBS, 300 μg/ml G418 and at 37° C. under 5% CO2/95% air atmosphere were trypsinized (0.25% trypsin) and plated into white opaque 96-well cell culture plates (25000 cells/well). After 24 hr, cells (in DMEM/F-12 medium+2% FBS) were treated with various concentrations of compounds, dissolved in DMSO. The final DMSO concentration remained at 0.01% (v/v). After 48 hr treatment, the medium was removed, cells were lysed with 50 μl of lysis buffer (From Luciferase reporter assay system, Roche Diagnostics, Indianapolis, Ind.) and assayed for luciferase activity using the Luciferase Reporter Gene Assay kit from Boehringer Mannheim as per manufacturer's specifications.

The subject of another experiment is KERtr cells. Briefly: Keratinocyte proliferation assay. The conditions noted are these: Homo sapiens, 72 h, BrdU incorporation, several values separated by /, read-out: Kera. Prolif. IC50. The protocol: 5. The Keratinocyte Proliferation Assay
This Assay is indicative for the treatment of psoriasis.
(5) The Keratinocyte Proliferation Assay:
KERtr cells (Human skin keratinocyte transformed with a retrovirus vector, obtained from ATCC) were plated in 96-well flat-bottomed plates (3000 cells/well) in 100 μl keratinocyte serum free medium supplemented with bovine pituitary extract in the absence of EGF (Life Technologies, Rockville, Md.) and incubated at 37° C. for two days. The cells were treated with various concentrations of VDR ligands (ten-fold serial dilution from 10,000 nM to 0.1 nM in triplicate), dissolved in 100 μl keratinocyte serum free medium supplemented with bovine pituitary extract in the absence of EGF and incubated at 37° C. for 72 hr. […] Potency values (IC50) values were determined as the concentration (nM) of compound that elicited a half-maximal response.
For orientation: Dividing cells build labelled thymidine or BrdU into new DNA.

Where [1] appears, read: Rattus norvegicus, 48 h, 48 hr treatment, luciferase, several values separated by /.
The mark [2] stands for this setting: 48 hr treatment, luciferase, several values separated by /.

On to `CCC(CC)(c1ccc(OCC(O)C(C)(C)C)c(C)c1)c1cc(C)c2oc(C(=O)O)cc2c1` (centres unmarked) [Ex 22, 5-{1-Ethyl-1-[4-(2-hydroxy-3,3-dimethyl-butoxy)-3-methyl-phenyl]-propyl}-7-methyl-benzofuran-2-carboxylic acid], for which the EC50 – broadly, the concentration giving half of the maximal effect – on RXR-VDR heterodimer is 0.027 µM; in the experiment on rat osteocalcin promoter (setting [1]), 0.001 µM. Moreover, the IC50 – broadly, the concentration that inhibits the measured activity by half – in the experiment on KERtr cells amounted to 0.109 µM.

In the case of `CCC(CC)(c1ccc(OCC2(C(C)(C)C)OCCO2)c(C)c1)c1cc2cc(C(=O)O)ccc2o1` [Ex 15, 2-{1-[4-(2-tert-Butyl-[1,3]dioxolan-2-ylmethoxy)-3-methyl-phenyl]-1-ethyl-propyl}-benzofuran-5-carboxylic acid], the concentration giving a half-maximal response (EC50) on RXR-VDR heterodimer is 1.35 µM and 0.627 µM; in the experiment with rat osteocalcin promoter (setting [1]), 0.634 µM.

Regarding `CCC(CC)(c1ccc(OCC2(C(C)(C)C)OCCO2)c(C)c1)c1cc(C)c2oc(C(=O)NCC(=O)O)cc2c1` [Ex 24, [(5-{1-[4-(2-tert-butyl-[1,3]dioxolan-2-ylmethoxy)-3-methyl-phenyl]-1-ethyl-propyl}-7-methyl-benzofuran-2-carbonyl)-amino]-acetic acid], the EC50 on RXR-VDR heterodimer turned out to be 0.851 µM; in the experiment with rat osteocalcin promoter (setting [1]) it was 0.431 µM.

Take `CCC(CC)(c1ccc(OCC2(C(C)(C)C)OCCO2)c(C)c1)c1cc(C)c2oc(C(=O)O)cc2c1` [Ex 23, 5-{1-[4-(2-tert-Butyl-[1,3]dioxolan-2-ylmethoxy)-3-methyl-phenyl]-1-ethylpropyl}-7-methyl-benzofuran-2-carboxylic acid]: the EC50 on RXR-VDR heterodimer was 0.66 µM and 0.32 µM; in the experiment on rat osteocalcin promoter (setting [2]), 0.088 µM; in the experiment on rat osteocalcin promoter (setting [1]), 0.127 µM.

For `CCC(CC)(c1ccc(OCC(=O)C(C)(C)C)c(C)c1)c1ccc2oc(C(=O)N(C)C)c(C)c2c1` [Ex 36, 5-{1-[4-(3,3-dimethyl-2-oxo-butoxy)-3-methyl-phenyl]-1-ethyl-propyl}-3-methyl-benzofuran-2-carboxylic acid dimethylamide], the EC50 on RXR-VDR heterodimer worked out at 0.536 µM; in the experiment with rat osteocalcin promoter (setting [1]), 0.21 µM.

Compound `CCC(CC)(c1ccc(OCC(=O)C(C)(C)C)c(C)c1)c1cc2ccc(OS(C)(=O)=O)cc2o1` [Ex 40, methanesulfonic acid 2-{1-[4-(3,3-dimethyl-2-oxo-butoxy)-3-methyl-phenyl]-1-ethyl-propyl}-benzofuran-6-yl ester] showed an EC50 on RXR-VDR heterodimer of 0.08 µM.

For the compound `CCC(CC)(c1ccc(OCC2(C(C)(C)C)OCCO2)c(C)c1)c1cc2cc(C(=O)NCC(=O)O)ccc2o1` [Ex 16, [(2-{1-[4-(2-tert-butyl-[1,3]dioxolan-2-ylmethoxy)-3-methyl-phenyl]-1-ethyl-propyl}-benzofuran-5-carbonyl)-amino]-acetic acid], the EC50 on RXR-VDR heterodimer was 0.57 µM and 0.071 µM; in the experiment on rat osteocalcin promoter (setting [2]) it was 0.044 µM; in the experiment with rat osteocalcin promoter (setting [1]), 0.027 µM.

On to `Cc1cc(C2(c3ccc(OCC(=O)C(C)(C)C)c(C)c3)CCCCC2)ccc1OCC(=O)C(C)(C)C` [CC, 1-(4-{1-[4-(3,3-Dimethyl-2-oxo-butoxy)-3-methyl-phenyl]-cyclohexyl}-2-methyl-phenoxy)-3,3-dimethyl-butan-2-one, reference compound], for which the EC50 in the experiment on rat osteocalcin promoter (Rattus norvegicus, comparison compounds) was 2.68 µM.

As to `CCC(CC)(c1ccc(OCC(O)C(C)(C)C)c(C)c1)c1cc2cc(C(=O)N(C)C)ccc2o1` (centres unmarked) [Ex. 6, 2-{1-Ethyl-1-[4-(2-hydroxy-3,3-dimethyl-butoxy)-3-methyl-phenyl]-propyl}-benzofuran-5-carboxylic acid dimethylamide], the EC50 at RXR-VDR heterodimer was 0.41 µM and 0.079 µM; in the experiment with rat osteocalcin promoter (setting [2]) it was 0.047 µM; in the experiment on rat osteocalcin promoter (setting [1]), 0.068 µM.

`CCC(CC)(c1ccc(OCC(=O)C(C)(C)C)c(C)c1)c1cc(C)c2oc(C(=O)N(C)C)cc2c1` [Ex 26, 5-{1-[4-(3,3-Dimethyl-2-oxo-butoxy)-3-methyl-phenyl]-1-ethyl-propyl}-7-methyl-benzofuran-2-carboxylic acid dimethylamide]: the EC50 in the experiment on rat osteocalcin promoter (setting [1]) was found to be 0.017 µM.

Regarding `CCC(CC)(c1ccc(OCC(=O)C(C)(C)C)c(C)c1)c1cc2cc(C(=O)OC)ccc2o1` [Ex. 1], the concentration giving a half-maximal response (EC50) in the experiment on rat osteocalcin promoter (setting [1]) turned out to be 0.001 µM. Moreover, in the experiment with KERtr cells, the IC50 came to 0.071 µM.
